Experimental data as given in patent publication US12415830B2, “Steroid compound, and use thereof and preparation method therefor” (Chengdu Kanghong Pharmaceutical Co Ltd, priority 2019, dated 2025).

Assay: Pharmacokinetics in brain and plasma after dosing
Format: in vivo, CD-1 mice
Procedure: KH022 in the present invention and the control described in example 56
The experimental animals are CD-1 mice.
Preparation of test compounds with 30% SBECD in water for intragastric administration. On the first day of the experiment, the animals in the first group are […] with the solution of KH022 or the control with the dosage of 5 mL/kg; before the administration, the animals were weighed, and the administration volume was calculated according to the body weight. Whole blood samples (about 0.03 ml per group) were collected at a specified time by saphenous vein puncture (or other suitable collection locations). Blood samples were immediately processed for plasma by centrifugation at approximately 4° C., 3,200 g for 10 min, quickly placed in dry ice, and kept below −20° C. until LC/MS/MS analysis. At each time point, animals were euthanized using CO2 and then brain tissue was collected, rinsed and dried with physiological saline, and homogenized with 4 times the brain weight (g) volume of 15 mM PBS (pH7.4):MeOH=2:1. After homogenization, samples were transferred to labeled centrifuge tubes and quickly placed in dry ice, stored at or below −20° C. for LC-MS/MS analysis.
The concentrations of the test compound in dose formulation samples was determined by the LC/UV, and the calibration curve contains at least 6 calibration standards, R^2≥0.999. The concentrations of the test compound in biological matrix was determined by the LC/MS/MS method. The retention time of test compounds or internal standards, chromatogram acquisition and chromatogram integration were processed by software Analyst (Applied Biosystems), and data statistics were processed by software Watson LIMS (Thermo Fisher Scientific) or Analyst (Applied Biosystems). The unit of the analyte concentration in the sample is ng/ml, with 3 significant digits reserved, and all values expressed in percentages (such as % deviation and % coefficient of variation, etc.) were kept to one decimal place. […]

Compound | detection in the brain (mouse brain, 8h) | content in the mouse brain relative to the control (2h, same dosage) [times] | clearance in the mouse brain compared with the control (same dosage)
C[C@@]1(O)CC[C@H]2[C@H](CC[C@@H]3[C@@H]2CC[C@]2(C)[C@@H](C(=O)Cn4cc(C#N)cn4)CC[C@@H]32)C1 [The control, reference compound] | no detection |  | 
C[C@@]1(O)CC[C@@]2(C)[C@@H](CC[C@@H]3[C@@H]2CC[C@]2(C)[C@@H](C(=O)Cn4ncnn4)CCC[C@@H]32)C1 [KH022] |  | 2.5 | cleared more slowly
